Data on 44 compounds can be found in ChEMBL document CHEMBL1145151, “2-Arylpropionic CXC chemokine receptor 1 (CXCR1) ligands as novel noncompetitive CXCL8 inhibitors” (J Med Chem, 2005).

Calls of active or inactive are those of the source. No cut-off for these calls is given here.

The target in one test is T1, Interleukin-8 receptors, CXCR1/CXCR2 (Homo sapiens, UniProt P25025+P25024).
T1 sequence (P25025 whole entry): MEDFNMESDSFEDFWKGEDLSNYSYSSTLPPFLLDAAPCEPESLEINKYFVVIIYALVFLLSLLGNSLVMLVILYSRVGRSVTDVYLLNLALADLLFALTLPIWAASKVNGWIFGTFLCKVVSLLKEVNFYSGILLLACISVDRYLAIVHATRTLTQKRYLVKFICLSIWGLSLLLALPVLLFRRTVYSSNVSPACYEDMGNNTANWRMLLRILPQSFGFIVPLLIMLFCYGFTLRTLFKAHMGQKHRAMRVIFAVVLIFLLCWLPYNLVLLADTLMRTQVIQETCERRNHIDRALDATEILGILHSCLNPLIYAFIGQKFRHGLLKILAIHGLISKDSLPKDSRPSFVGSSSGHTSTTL
T1 sequence (P25024 whole entry): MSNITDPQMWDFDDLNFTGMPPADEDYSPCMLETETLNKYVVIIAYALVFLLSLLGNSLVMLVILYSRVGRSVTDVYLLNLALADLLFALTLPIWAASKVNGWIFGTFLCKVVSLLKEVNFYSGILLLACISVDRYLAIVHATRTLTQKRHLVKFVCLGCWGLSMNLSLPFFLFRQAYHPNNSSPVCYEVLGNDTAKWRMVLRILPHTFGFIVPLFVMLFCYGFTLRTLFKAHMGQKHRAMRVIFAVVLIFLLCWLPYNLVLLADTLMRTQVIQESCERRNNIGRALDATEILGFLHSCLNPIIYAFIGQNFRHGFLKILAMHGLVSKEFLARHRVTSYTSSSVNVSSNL
Kind of test: Inhibition of CXCL8-induced chemotaxis in human polymorphonuclear cells. The class given is functional.
As for `CONC(=O)[C@H](C)c1ccc(CC(C)C)cc1`, the IC50 (commonly the concentration at which inhibition is half-maximal) stood at 1.8 nM.

In another test the target is T2, Interleukin-8 receptors, CXCR1/CXCR2 (Homo sapiens) (UniProt P25025+P25024). Kind of test: Inhibition of CXCL8-induced chemotaxis of human polymorphonuclear cells at 10e-6 M: not active. The test is classed as functional.
Consider `CC(C(=O)NS(C)(=O)=O)c1ccc2c(c1)[nH]c1ccc(Cl)cc12` (centres undefined), for which the inhibition (commonly the percentage by which the read-out fell short of the control) was “inactive”.

A further test concerns the target T2, Interleukin-8 receptors, CXCR1/CXCR2 (Homo sapiens). Kind of test: Inhibition of CXCL8-induced chemotaxis of human polymorphonuclear cells at 10e-8 M: not active. The class given is functional.
Turning to `CC(C)Cc1ccc([C@@H](C)C(=O)NS(=O)(=O)CCCN2C(=O)c3ccccc3C2=O)cc1`, the inhibition entry was “inactive”.
On to `CCCCc1cccc(C(C)C(=O)O)c1` (centres undefined), for which the inhibition entry was “inactive”.
Regarding `CC(C)Cc1ccc([C@@H](C)C(=O)N2CCCCC2)cc1`, the inhibition entry is “inactive”.
In the case of `CC(C)Cc1ccc([C@@H](C)C(=O)NS(=O)(=O)Cc2cccnc2)cc1`, the inhibition entry is “inactive”.
`CC(C)Cc1ccc([C@@H](C)C(=O)NC(C)C(=O)O)cc1` (single isomer, unassigned): the inhibition entry is “inactive”.
The same measure, in the same setting: the value for `CC(C)Cc1ccc([C@@H](C)C(=O)NCCC(=O)O)cc1` was “inactive”; that for `CC(C)Cc1ccc([C@@H](C)C(=O)NS(=O)(=O)CCCN)cc1` was “inactive”; that for `CC(=O)c1cccc(C(C)C(=O)O)c1` (centres undefined) was “inactive”.
Still for that read-out and setting: for `CC(C)Cc1ccc([C@@H](C)C(=O)NC2CCN(C)C2)cc1` (some centres undefined) the value was “inactive”.
As for `CC(C(=O)O)c1ccc(Cc2ccccc2)cc1` (centres undefined), the inhibition result was “inactive”.
Same read-out and setting: for `CC(C)Cc1ccc([C@@H](C)C(=O)N[C@H](CS)C(=O)O)cc1` the value was “inactive”; for `CC(C)Cc1cccc(C(C)C(=O)O)c1` (centres undefined), “inactive”.
As for `CC(C)Cc1ccc([C@@H](C)C(=O)NCCCN)cc1`, the inhibition entry was “inactive”.
With `CC(C(=O)O)c1ccc(CC2CCCCC2)cc1` (centres undefined), the inhibition result is “inactive”.
With `CC(C)Cc1ccc([C@@H](C)C(=O)NS(=O)(=O)Cc2ccc(Cl)cc2)cc1`, the inhibition entry is “inactive”.
Same read-out and setting: the value for `COC(=O)[C@@H](C)NC(=O)[C@H](C)c1ccc(CC(C)C)cc1` was “inactive”; that for `CC(C(=O)O)c1cccc(C(=O)O)c1` (centres undefined) was “inactive”; that for `CC(C(=O)O)c1ccc(-c2ccccc2)cc1` (centres undefined) was “inactive”.
As to `CC(C)Cc1ccc([C@@H](C)C(=O)NCCCC(=O)O)cc1`, the inhibition entry was “inactive”.
As to `CC(C)Cc1ccc([C@@H](C)C(=O)N(C)C)cc1`, the inhibition result was “inactive”.
The same measure, in the same setting: for `CC(C)Cc1ccc([C@@H](C)C(=O)NCCCCCO)cc1` the value was “inactive”.
On the same count and under the same terms, the value for `CC(C)Cc1ccc([C@@H](C)C(=O)NS(=O)(=O)C(F)(F)F)cc1` was “inactive”; that for `COC(=O)CNC(=O)[C@H](C)c1ccc(CC(C)C)cc1` was “inactive”.
Consider `CC(C)Cc1ccc([C@@H](C)C(=O)NC2CCOC2)cc1` (some centres undefined), for which the inhibition result is “inactive”.
Turning to `C/C=C/c1cccc(C(C)C(=O)O)c1` (centres undefined), the inhibition entry was “inactive”.
As for `CC(C(=O)O)c1ccc(O)cc1` (centres undefined), the inhibition result is “inactive”.
Consider `CC(C(=O)O)c1ccc(-c2cccs2)cc1` (centres undefined), for which the inhibition entry is “inactive”.
Regarding `COC(=O)C(C)c1ccc(CC(C)C)cc1` (centres undefined), the inhibition result was “inactive”.
Regarding `CC(C)Cc1ccc([C@@H](C)C(=O)NCCC[N+](C)(C)C)cc1`, the inhibition entry is “inactive”.
`CC(C)Cc1ccc([C@@H](C)C(=O)NS(=O)(=O)c2ccccc2)cc1`: the inhibition entry was “inactive”.
In the case of `CC(C(=O)O)c1ccc(C(C)(C)C)cc1` (centres undefined), the inhibition result was “inactive”.
`CC(C)Cc1ccc([C@@H](C)C(=O)NC2CCOCC2)cc1`: the inhibition result is “inactive”.

A further test shares this target. In words: Inhibition of interleukin-8 induced chemotaxis of human polymorphonuclear cells at 10 nM.
Compound `CC(C)Cc1ccc([C@@H](C)C(=O)Nc2ccccc2)cc1` had an inhibition of 30%.
Take `CCNC(=O)[C@H](C)c1ccc(CC(C)C)cc1`: the inhibition worked out at 26%.
For the compound `CC(C)c1ccc(C(C)C(=O)O)cc1` (centres undefined), the inhibition is 32%.
On to `CC(C(=O)O)c1cccc(Cc2ccccc2)c1` (centres undefined), for which the inhibition is 30%.
Same read-out and setting: the value for `CCS(=O)(=O)NC(=O)[C@H](C)c1ccc(CC(C)C)cc1` was 40%; that for `CC(C)Oc1ccc(C(C)C(=O)O)cc1` (centres undefined) was 38%.
`C[C@@H](C(=O)NS(C)(=O)=O)c1ccc(-c2ccccc2)c(F)c1` registered an inhibition of 30%.
For the compound `C[C@H](C(=O)NS(C)(=O)=O)c1ccc(-c2ccccc2)c(F)c1`, the inhibition amounted to 19%.
Consider `CCC(C)c1cccc(C(C)C(=O)O)c1` (centres undefined), for which the inhibition is 50%.
Same read-out and setting: for `CNC(=O)[C@H](C)c1ccc(CC(C)C)cc1` the value was 40%.
